Measurements published in patent publication US20230192701A1, “BICYCLIC KINASE INHIBITORS AND USES THEREOF” (iOmx Therapeutics AG, priority 2020, published 2023).
pIC50: −log10 of the molar value. In brackets after ≈: the same amount, converted by molar mass. Entries after “also recorded” stand apart in the source; their conditions may differ. Where two headings read alike, the source gives them in different places.

Tests used:
SIK2 = SIK2 (Homo sapiens, UniProt Q9H0K1); experiment: radiometric protein kinase assay (33PanQinase Activity Assay), SIK2; format: biochemical; conditions: for IC50: ATP 1.0 μM, substrate RBER-CHKtide; for inhibiting SIK2 compared to PY1: in words
SIK2, sequence (Q9H0K1 whole entry): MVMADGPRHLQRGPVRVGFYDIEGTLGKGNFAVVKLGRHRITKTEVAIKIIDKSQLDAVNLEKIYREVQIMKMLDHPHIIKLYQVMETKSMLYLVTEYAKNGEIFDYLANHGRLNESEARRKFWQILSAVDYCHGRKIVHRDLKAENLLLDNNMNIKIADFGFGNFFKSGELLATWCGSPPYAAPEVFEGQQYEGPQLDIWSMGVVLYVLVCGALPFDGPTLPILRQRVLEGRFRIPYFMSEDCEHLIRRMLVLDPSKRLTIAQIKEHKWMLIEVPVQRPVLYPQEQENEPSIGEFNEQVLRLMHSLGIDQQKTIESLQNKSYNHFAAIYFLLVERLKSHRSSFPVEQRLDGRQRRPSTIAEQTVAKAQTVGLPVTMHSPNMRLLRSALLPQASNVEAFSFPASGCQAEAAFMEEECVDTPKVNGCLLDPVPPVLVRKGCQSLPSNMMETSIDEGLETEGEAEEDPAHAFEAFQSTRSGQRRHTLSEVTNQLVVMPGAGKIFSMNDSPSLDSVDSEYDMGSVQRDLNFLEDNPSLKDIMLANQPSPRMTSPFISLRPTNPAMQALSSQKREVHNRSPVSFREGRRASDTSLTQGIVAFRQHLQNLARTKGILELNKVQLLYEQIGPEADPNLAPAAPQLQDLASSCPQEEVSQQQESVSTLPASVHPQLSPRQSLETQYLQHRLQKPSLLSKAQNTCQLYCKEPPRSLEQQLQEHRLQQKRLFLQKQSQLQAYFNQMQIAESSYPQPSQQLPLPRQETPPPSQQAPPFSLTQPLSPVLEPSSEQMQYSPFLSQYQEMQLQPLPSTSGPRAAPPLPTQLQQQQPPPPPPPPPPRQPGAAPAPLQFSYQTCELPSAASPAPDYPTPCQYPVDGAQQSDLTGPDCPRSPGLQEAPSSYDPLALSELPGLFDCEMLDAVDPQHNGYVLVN
Method: (§1) The IC50s of the compounds against the SIK family of protein-serine/threonine kinases (SIK2 and SIK3) were determined as followed. Briefly, a radiometric protein kinase assay (33PanQinase® Activity Assay) was used for measuring the kinase activity of the two protein kinases. The kinase assays were performed in 96-well FlashPlates™ from PerkinElmer (Boston, Mass., USA) in a 50 uL reaction volume. The reaction cocktail was pipetted in four steps in the following order: • […] (standard buffer/[gamma-33P]-ATP) • 10 uL of ATP solution (in water) • 5 uL of test compound (in 10% DMSO) • 20 uL enzyme/substrate mix
(§2) The following amounts of enzyme and applicable substrate were used per well:
(§3) The reaction cocktails were incubated at 30 °C for 60 minutes. The reaction was stopped with 50 uL of 2% (v/v) H3PO4, plates were aspirated and washed two times with 200 μL 0.9% (w/v) NaCl. Incorporation of 33Pi was determined with a microplate scintillation counter (Microbeta, Wallac). All assays were performed with a BeckmanCoulter/SAGIAN™ Core System.

SIK3 = SIK3 (Homo sapiens, UniProt Q9Y2K2); experiment: radiometric protein kinase assay (33PanQinase Activity Assay), SIK3; format: biochemical; conditions: for IC50: ATP 1.0 μM, substrate RBER-CHKtide; for inhibiting SIK3 compared to PY1: in words
SIK3, sequence (Q9Y2K2 whole entry): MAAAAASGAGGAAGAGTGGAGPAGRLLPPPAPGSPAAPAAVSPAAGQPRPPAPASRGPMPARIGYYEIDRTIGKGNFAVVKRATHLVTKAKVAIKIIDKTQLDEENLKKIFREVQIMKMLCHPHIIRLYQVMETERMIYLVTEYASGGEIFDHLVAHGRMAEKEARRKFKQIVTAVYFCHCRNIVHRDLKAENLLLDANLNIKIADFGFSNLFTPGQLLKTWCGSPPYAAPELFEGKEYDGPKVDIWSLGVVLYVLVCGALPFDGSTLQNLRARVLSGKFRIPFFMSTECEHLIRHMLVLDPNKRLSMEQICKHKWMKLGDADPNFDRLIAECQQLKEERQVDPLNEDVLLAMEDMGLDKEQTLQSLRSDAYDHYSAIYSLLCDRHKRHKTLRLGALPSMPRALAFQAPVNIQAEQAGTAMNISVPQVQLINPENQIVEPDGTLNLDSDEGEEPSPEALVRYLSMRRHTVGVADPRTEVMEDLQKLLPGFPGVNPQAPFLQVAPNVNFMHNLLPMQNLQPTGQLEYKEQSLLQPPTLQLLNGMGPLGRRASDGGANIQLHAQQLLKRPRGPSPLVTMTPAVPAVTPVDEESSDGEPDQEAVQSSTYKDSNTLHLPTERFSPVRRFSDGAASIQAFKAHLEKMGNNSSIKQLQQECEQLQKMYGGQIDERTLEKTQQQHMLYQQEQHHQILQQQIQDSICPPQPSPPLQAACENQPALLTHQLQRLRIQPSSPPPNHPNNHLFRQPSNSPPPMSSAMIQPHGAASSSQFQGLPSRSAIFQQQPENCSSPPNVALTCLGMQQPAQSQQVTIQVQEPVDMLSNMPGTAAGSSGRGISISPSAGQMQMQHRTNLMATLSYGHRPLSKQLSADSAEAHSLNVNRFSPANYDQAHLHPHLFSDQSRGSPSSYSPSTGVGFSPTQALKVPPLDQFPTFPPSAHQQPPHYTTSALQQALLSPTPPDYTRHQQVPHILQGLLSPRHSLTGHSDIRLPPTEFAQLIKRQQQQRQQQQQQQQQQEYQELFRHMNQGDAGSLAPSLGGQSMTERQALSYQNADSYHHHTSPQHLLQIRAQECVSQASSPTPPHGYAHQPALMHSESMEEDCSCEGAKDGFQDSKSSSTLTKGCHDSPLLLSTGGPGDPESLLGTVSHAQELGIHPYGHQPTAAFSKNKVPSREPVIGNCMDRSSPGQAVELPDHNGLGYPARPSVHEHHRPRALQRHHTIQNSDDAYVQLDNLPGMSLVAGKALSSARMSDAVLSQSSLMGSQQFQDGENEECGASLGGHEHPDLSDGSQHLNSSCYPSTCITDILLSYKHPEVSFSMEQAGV
Method: as §1, §2, §3

MC38 tumour cells = experiment: TNF-sensitised cell viability assay (CellTiter-Glo), MC38; format: cell-based, murine; conditions: 100 ng/ml rMuTNF, 72 h
Method: (§4) Cell viability of HCT116 tumour cells was measured using the CellTiter-Glo (CTG) luminescent cell viability assay (Promega, Madison, USA) according to the manufacturer's protocol. In short, 1×10^3 HCT116 cells were seeded in a 384-well plate for 24 h and subsequently treated with different concentrations of compounds and 10 ng/ml rHuTNF for 72 h at 37° C. and 5% CO2. After incubation, CTG reagent was added to the wells and cells were lysed for 10 min. Read-out was performed using the Tecan reader with 0.1 sec counting time. TNF-induced cell killing in human PANC1 and murine MC38 tumour cells was measured analogously to the assay in human HCT116 cells, except that for the PANC1 assay 100 ng/ml rHuTNF and for the MC38 assay 100 ng/ml rMuTNF were used.

Kinetic solubility assay = format: physicochemical; conditions: aqueous buffer, kinetic from dmso stock; PBS buffer pH 7.4, 1.0% DMSO, 24 h at RT
Method: The Kinetic solubility assay was conducted as follows. 4 uL compound of the 50 mM DMSO stock was added to deep well plate containing 396 uL PBS buffer (pH 7.4). The DMSO content in the sample was 1.0%, and the compound concentration 500 μM. The sample plate was vortexed at 800 rpm for 24 h at RT on a thermomixer. At the end of the incubation period, the sample plate was centrifuged at 4000 rpm for 10 mins. 3 uL of supernatant was transferred to well containing 297 uL of ISTD in Acetonitrile water:50:50, v/v and analysed in LC-MS/MS against a calibration curve (CC).

[1] = Human liver microsomal stability; format: in vitro ADME; conditions: pH 7.4; human liver microsomes, NADPH, 37°C
Method: (§5) Briefly, human and liver microsomal stability was determined by pre-incubation of 2.5 uL compound and 75 uL of the respective liver microsomes in potassium phosphate buffer (pH 7.4) at 37° C. After adding of NADPH as cofactor and further incubation at 37° C. for 60 min, acetonitrile containing internal standard was added, and the sample was vortexed for 5 min at 1200 rpm and then centrifuged 10 min at 4000 rpm.
(§6) LC-MS/MS was performed for all assays using a C18 column (50*4.6 mm, 5 um) for the CaCo2 assay, or a C18 column (50*4.6 mm, 4 um) for the other assays. The mobile phases used were 10 mM Ammonium Acetate with 0.1% Formic acid (aqueous) and 100% Acetonitrile (organic).

[2] = Mouse liver microsomal stability; format: in vitro ADME; conditions: pH 7.4; mouse liver microsomes, NADPH, 37°C
Method: as §5, §6

[3] = Human hepatocyte stability; format: in vitro ADME; conditions: human hepatocytes, 37°C
Method: (§7) Determination of human and mice hepatocyte stability was conducted as follows. 200 uL of the respective hepatocyte cell suspension (2×10e6/ml) was preincubated at 37° C. for 10 min. Then, 200 uL of a 2 uM working stock of the test compound was added to the hepatocyte cell suspension, and the mixture was further incubated at 37° C. and 500 rpm. The reaction was stopped at 30, 60 and 120 min by precipitating 50 uL of the incubation mixture with 200 uL of acetonitrile. Samples were vortexed for 5 min at 1200 rpm and centrifuged at 4000 rpm for 10 min. Intrinsic clearance and half-life were analysed using LC-MS/MS.
as §6

[4] = Mouse hepatocyte stability; format: in vitro ADME; conditions: mouse hepatocytes, 37°C
Method: as §7, §6

[5] = Human plasma-protein binding (RED method); format: in vitro ADME
Method: (§8) Human and mice protein plasma binding was determined using the Plasma Protein Binding by RED Method. Briefly, 200 uL of the respective plasma containing the test compound (10 uM) was spiked into the donor well (RED Chamber) of the insert. 350 uL of PBS was spiked into receiver well (white chamber). The plate was incubated at 37° C. in a thermomixer at 400 rpm for 5 hours. The samples were matrix equilibrated with opposite matrix (25 uL blank buffet/Plasma). Matrix matched samples were precipitated with 200 uL of Acetonitrile containing Internal standard. Samples were vortexed at 1000 rpm for 5 min and centrifuged at 4000 rpm for 10 min. The supernatant was diluted 2 folds with water and % bound and unbound protein and % recovery at 5 h was determined by LC-MS/MS.
as §6

[6] = Murine plasma protein binding (RED method); format: in vitro ADME; conditions: mouse
Method: as §8, §6

[7] = CaCo2 permeability and efflux assay; format: in vitro ADME; conditions: human, Caco-2; CaCo2, mean efflux ratio
Method: (§9) To determine apparent permeability of the compounds an assay using a Caco-2 cells monolayer (cultured for 21d) in a 24-well format (poly carbonate high pore density plate with 0.4 μm pore size and a 0.7 cm2 active membrane area; Millipore) was performed as followed. 800 uL of DMEM was added to the basal compartment of the 24 well-plate and 60000 CaCo2 cells/well were seeded in the apical wells and incubated in a CO2 incubator at 37° C. for proliferation of cells. Apical to Basal permeability was determined by adding 400 uL of test compound to the apical well and 800 uL of HBSS buffer with 2% BSA to the basal well. 25 uL of basal sample was collected after 120 min and processed as stated below. Basal to Apical permeability was determined by adding 800 uL of test compound to basal well and 400 uL of HBSS buffer with 2% BSA to apical well. 25 uL of apical sample was collected after 120 min and processed as stated below. The samples were processed by diluting the donor samples 1:1 with HBSS containing 2% BSA and the receiver samples 1:1 with HBSS buffer. Samples were then precipitated with 200 uL of acetonitrile containing internal standard, vortexed for 5 min at 1000 rpm, and centrifuged at 4000 rpm for 20 min. 150 uL of supernatant was diluted with 150 uL of water and submitted for LC-MS/MS analysis, and Bi-directional (A-B and B-A) apparent permeability (Papp) was calculated.
as §6

Caco-2 cells monolayer = experiment: CaCo2 permeability and efflux assay; format: in vitro ADME; conditions: CaCo2, apical to basal, 120 min
Method: as §9, §6

[8] = target: 335 wild-type protein kinases; experiment: single-point inhibition assays, residual activity (ProQinase Kinase Profiler); format: biochemical; conditions: single-point 0.1 uM and 1 uM, 335 kinases
Method: Several compounds of Formula (I) described herein were also tested in single-point (0.1 uM and 1 uM) inhibition assays over a diverse set of 335 wild-type protein (ProQinase “Kinase Profiler”; ProQinase, Freiburg, Germany), in which the residual activity of each kinase was determined. […] Secondly, the residual activity of each kinase was compared to other compounds tested (in particular, against the prior art compounds PY1) by use of scatter plots.

HCT116 and PANC1 = experiment: toxicity against the cell lines in the absence of TNF; format: cell-based; conditions: 0 ng/mL TNF, up to concentrations of 10 uM
Method: Typically, those compounds of Formula (I) tested were less toxic against the cell lines than the prior art compound PY1 when tested (eg, in the absence of TNF), especially against the human cell lines such as HCT116 (data not shown).
as §4

HCT116 tumour cells = experiment: TNF-sensitised cell viability assay (CellTiter-Glo), HCT116; format: cell-based, human
Method: as §4

PANC1 tumour cells = experiment: TNF-sensitised cell viability assay (CellTiter-Glo), PANC1; format: cell-based, human
Method: as §4

[9] = Mus musculus, MC-38, read-out: MC38 IC50 (at 100 ng/ml rMuTNF)

IC50 (SIK2) | IC50 (SIK3) | solubility kinetic at 24 h (Kinetic solubility assay) | half-life [1] | half-life [2] | half-life at 1 uM [3] | half-life at 1 uM [4] | recovery at 5 h, 10 uM [5] | recovery at 5 h, 10 uM [6] | efflux ratio at 120 min [7] | A > B(10 EE-06 cm/s) (Caco-2 cells monolayer) | kinases inhibited less strongly than by PY1 [8] | SMILES | inhibiting SIK2 compared to PY1 (SIK2) | inhibiting SIK3 compared to PY1 (SIK3) | pIC50 (MC38 tumour cells; [9]) | overall kinase profile compared to prior art compound PY1 [8] | toxicity against the cell lines in the absence of TNF (HCT116 and PANC1) | also measured
< 50 nM | < 50 nM | 9.1 µM (≈ 5.57 µg/mL) | 12 min | 10 min | 186 min | 82 min | 32% | 38% | 2.7 | 12.9 10 EE-06 cm/s | – | COc1ccc(N2C(=O)N(c3c(C(F)F)csc3Cl)Cc3cnc(Nc4ccc(C5CCN(C)CC5)cc4)nc32)nc1 [AA2, 3-(2-chloro-4-(difluoromethyl)thiophen-3-yl)-l-(5-methoxypyridin-2-yl)-7-((4-(l-methylpiperidin-4-yl)phenyl)amino)-3,4-dihydropyrimido[4,5-d]pyrimidin-2(1H)-one] | superior in inhibiting SIK2 and SIK3 compared to PY1 | superior in inhibiting SIK2 and SIK3 compared to PY1 | 6.00 to 6.30 | – | – | –
< 50 nM | < 50 nM | 9.1 µM (≈ 5.41 µg/mL) | 16 min | 20 min | 42 min | 108 min | 34% | 45% | 2.9 | 8.4 10 EE-06 cm/s | SRMS, NLK, RIPK5, LTK and ALK | COc1ccc(N2C(=O)N(c3c(CF)csc3Cl)Cc3cnc(Nc4ccc(C5CCN(C)CC5)cc4)nc32)nc1 [AA3, 3-(2-chloro-4-(fluoromethyl)thiophen-3-yl)-l-(5-methoxypyridin-2-yl)-7-((4-(l-methylpiperidin-4-yl)phenyl)amino)-3,4-dihydropyrimido[4,5-d]pyrimidin-2(1H)-one] | superior in inhibiting SIK2 and SIK3 compared to PY1 | superior in inhibiting SIK2 and SIK3 compared to PY1 | 6.00 to 6.30 | potent inhibitor of surprisingly more kinases than prior art compound PY1 | – | kinases inhibited more strongly than by PY1 [8]: TAOK2, SYK, TYRO3, ACVR2B, MEKK2, AXL, ITK, MAP3K11, TRKA, MERTK, ZAP70, and MEKK2, and in particular CSF1R, HCK, TXK, YES, LCK, SRC, EPHA1 and FGR
400 to 800 nM | 800 to 1000 nM | – | – | – | – | – | – | – | – | – | FYN, BTK, EPHB2, LCK and CSK | COc1ccc(N2C(=O)N(c3c(C)noc3C)Cc3cnc(Nc4ccc(C5CCN(C)CC5)cc4OC)nc32)nc1 [AA5, 3-(3,5-dimethylisoxazol-4-yl)-7-((2-methoxy-4-(1-methylpiperidin-4-yl)phenyl)amino)-1-(5-methoxypyridin-2-yl)-3,4-dihydropyrimido[4,5-d]pyrimidin-2(1H)-one] | – | – | – | potently inhibited far fewer kinases than prior art compound PY1 | essentially non-toxic | relevant kinases still potently inhibited [8]: TXK, ERBB4, EPHB1, FRK, BRK, EPHA4, ACK1, EGFR, EPHA1 and SIK1; also recorded: reasonably potent against CSF1R

SMILES | IC50 (SIK2) | IC50 (SIK3) | solubility kinetic at 24 h (Kinetic solubility assay) | half-life [1] | half-life [2] | half-life at 1 uM [3] | half-life at 1 uM [4] | recovery at 5 h, 10 uM [5] | recovery at 5 h, 10 uM [6] | efflux ratio at 120 min [7] | A > B(10 EE-06 cm/s) (Caco-2 cells monolayer) | kinases inhibited less strongly than by PY1 [8] | inhibiting SIK2 compared to PY1 (SIK2) | inhibiting SIK3 compared to PY1 (SIK3) | pIC50 (MC38 tumour cells; [9]) | overall kinase profile compared to prior art compound PY1 [8] | toxicity against the cell lines in the absence of TNF (HCT116 and PANC1) | also measured
COc1ccc(N2C(=O)N(c3c(CF)csc3Cl)Cc3cnc(Nc4ccc(N5CCN(C)CC5)cc4)nc32)nc1 [AA6, 3-(2-chloro-4-(fluoromethyl)thiophen-3-yl)-1-(5-methoxypyridin-2-yl)-7-((4-(4-methylpiperazin-1-yl)phenyl)amino)-3,4-dihydropyrimido[4,5-d]pyrimidin-2(l H)-one] | < 50 nM | < 50 nM | – | – | – | – | – | – | – | – | – | – | superior in inhibiting SIK2 and SIK3 compared to PY1 | superior in inhibiting SIK2 and SIK3 compared to PY1 | – | – | essentially non-toxic | sensitisation of HCT116 tumour cells to the cytotoxic effect of TNF compared to PY1 (HCT116 tumour cells; in words): much stronger effect compared to the prior art compound PY1; pIC50 (HCT116 tumour cells; read-out: HCT116 IC50 (at 10 ng/ml rHuTNF), 10 ng/ml rHuTNF, 72 h): > 7.00; sensitisation of PANC tumour cells to the cytotoxic effects of TNF compared to PY1 (PANC1 tumour cells; in words): stronger effect than PY1; pIC50 (PANC1 tumour cells; read-out: PANC IC50 (at 100 ng/ml rHuTNF), 100 ng/ml rHuTNF, 72 h): 6.30 to 7.00; pIC50 (MC38 tumour cells; read-out: MC38 IC50 (at 100 ng/ml rMuTNF)): 6.00 to 6.30
